From ChEMBL document CHEMBL1201862, “PubChem BioAssay data set” (2004)
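Test compounds were applied to cells in 96-well plates for 48 hours at 5 doses. At the GI50, growth is halved.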 Active and inactive are the calls of the source. No stated cut-off is given here; in the data, active = GI50 up to about 1.1 µM and inactive = higher.

Key:
Assay in all cases: growth of human tumour cells (NCI), 48 h
[1] = test system: HL-60
[2] = test system: NCI-H460
[3] = test system: Hs-578T
[4] = test system: TK-10
[5] = test system: NCI/ADR-RES
[6] = test system: CCRF-CEM
[7] = test system: SNB-19
[8] = test system: MDA-N
[9] = test system: K562
[10] = test system: SF-295
[11] = test system: RPMI-8226
[12] = test system: OVCAR-8
[13] = test system: CAKI-1
[14] = test system: MDA-MB-435
[15] = test system: UACC-62
[16] = test system: SR
[17] = test system: ACHN
[18] = test system: SK-OV-3
[19] = test system: HOP-62
[20] = test system: HCC 2998

SMILES	GI50 [1]	GI50 [2]	GI50 [3]	GI50 [4]	GI50 [5]	GI50 [6]	GI50 [7]	GI50 [8]	GI50 [9]	GI50 [10]	GI50 [11]	GI50 [12]	GI50 [13]	GI50 [14]	GI50 [15]	GI50 [16]	GI50 [17]	GI50 [18]	GI50 [19]	GI50 [20]
COc1cc2c(cc1OC)C13CCN4C=C5CCOC6CC(=O)N2C1C6C5CC43 (stereo unspecified)	> 100 µM (inactive)	> 100 µM (inactive)	> 100 µM (inactive)	> 100 µM (inactive)	> 100 µM (inactive)	> 100 µM (inactive)	> 100 µM (inactive)	> 100 µM (inactive)	> 100 µM (inactive)	> 100 µM (inactive)	> 100 µM (inactive)	> 100 µM (inactive)	> 100 µM (inactive)	> 100 µM (inactive)	> 100 µM (inactive)	> 100 µM (inactive)	> 100 µM (inactive)	> 100 µM (inactive)	> 100 µM (inactive)	
CCC(/C=C/C1OC(=O)C=CC1C)=C\C(C)C/C=C/C(C)=C/C(C)C(=O)C(C)C(O)C(C)C/C(C)=C/C(=O)O (stereo unspecified)	0.855 µM (active)		1.44e-05 µM (active)	9.4e-05 µM (active)	0.000115 µM (active)	0.895 µM (active)	3.09 µM (inactive)	2.13e-06 µM (active)	1.02 µM (active)	0.757 µM (active)	1.37 µM (inactive)	3.14 µM (inactive)	0.807 µM (active)	2.33e-06 µM (active)	1.56 µM (inactive)	< 1e-06 µM (active)	7.4e-06 µM (active)	3.11 µM (inactive)	2.62 µM (inactive)	6.76e-06 µM (active)
c1cncc(CC2(c3cc4ccccc4[nH]3)OCCO2)c1	37.2 µM (inactive)	> 100 µM (inactive)	96.8 µM (inactive)	> 100 µM (inactive)	> 100 µM (inactive)	> 100 µM (inactive)	> 100 µM (inactive)	> 100 µM (inactive)		> 100 µM (inactive)		> 100 µM (inactive)	> 100 µM (inactive)	> 100 µM (inactive)	> 100 µM (inactive)	85.5 µM (inactive)	> 100 µM (inactive)	> 100 µM (inactive)		> 100 µM (inactive)
CC(=O)NN(c1ccccc1)C1CCN(c2ccccc2)N1C(C)=O (stereo unspecified)	3.69 µM (inactive)	> 10 µM (inactive)	> 10 µM (inactive)	> 10 µM (inactive)	5.52 µM (inactive)	> 10 µM (inactive)	> 10 µM (inactive)	9.16 µM (inactive)	2.32 µM (inactive)	3.5 µM (inactive)	8.71 µM (inactive)	> 10 µM (inactive)	4.12 µM (inactive)	3.18 µM (inactive)		6.25 µM (inactive)	2.82 µM (inactive)	> 10 µM (inactive)	> 10 µM (inactive)	3.82 µM (inactive)
CC(C)CCNC(=O)c1ccc(CNC(=O)/C=C/c2ccc3c(c2)-c2ccccc2C3)cc1		57.4 µM (inactive)	26.9 µM (inactive)	40 µM (inactive)	34.2 µM (inactive)	38.8 µM (inactive)	> 100 µM (inactive)	62.8 µM (inactive)	64.3 µM (inactive)	30.7 µM (inactive)	44 µM (inactive)	27.7 µM (inactive)	26.5 µM (inactive)	52.5 µM (inactive)	> 100 µM (inactive)	34.9 µM (inactive)	57.4 µM (inactive)	57.1 µM (inactive)	19.1 µM (inactive)	71.3 µM (inactive)
CCCCCC(/C=C/C1CCC(=O)C1CC#C[Si](C)(C)C)OCc1ccccc1 (stereo unspecified)		17 µM (inactive)	17.9 µM (inactive)	22.1 µM (inactive)	14.5 µM (inactive)	10.5 µM (inactive)	28.4 µM (inactive)	21.1 µM (inactive)	19.1 µM (inactive)	17.1 µM (inactive)	14.7 µM (inactive)	14.8 µM (inactive)	17.9 µM (inactive)	19.9 µM (inactive)	13.5 µM (inactive)	> 35 µM (inactive)	17.5 µM (inactive)	41.2 µM (inactive)	19.1 µM (inactive)	17.9 µM (inactive)
CC(=O)O[C@H]1C[C@H](O[C@H]2[C@@H](O)C[C@H](O[C@H]3[C@@H](O)C[C@H](O[C@H]4CC[C@@]5(C)[C@H](CC[C@@H]6[C@@H]5C[C@@H](O)[C@]5(C)[C@@H](C7=CC(=O)OC7)CC[C@]65O)C4)O[C@@H]3C)O[C@@H]2C)O[C@H](C)[C@H]1O[C@@H]1O[C@H](CO)[C@@H](O)[C@H](O)[C@H]1O [LANATOSIDE C]	0.0332 µM (active)	0.0138 µM (active)	0.0252 µM (active)	0.0454 µM (active)	0.0364 µM (active)		0.168 µM (active)	0.156 µM (active)	0.04 µM (active)	0.0426 µM (active)	0.0368 µM (active)	0.0612 µM (active)	0.0336 µM (active)	0.212 µM (active)	0.21 µM (active)	0.1 µM (active)	0.0283 µM (active)	0.0597 µM (active)	0.0264 µM (active)	0.148 µM (active)
